Test results: patent US9708336B2, “Metallo-beta-lactamase inhibitors” (priority 2014, dated 2017)
Where two headings read alike, the source gives them in different places.

Assays:
NDM-1 = NDM-1 (Klebsiella pneumoniae, UniProt C7C422); test: biochemical; assay type: biochemical; conditions: read-out: NDM-1 IC50
IMP-1 = IMP-1 (Serratia marcescens, UniProt P52699); test: biochemical; assay type: biochemical; conditions: read-out: IMP-1 IC50
[1] = system: Escherichia coli expressing NDM-1 (CLB30016); test: Antibiotic potentiation activity: synergistic concentration (MITC95) with imipenem, OD600 growth; assay type: cell-based; conditions: for Escherichia coli expressing NDM-1 (CLB 30016) MITC95: concentration giving 95% inhibition of bacterial growth
Procedure, shortened: (§1)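 Test compound was combined with 4 μg/ml imipenem (or optionally 1 μg/ml), or with no antibiotic, against saline-suspended colonies diluted 1:100 in 1.1×CAMHB. Strains were E. coli NDM-1, S. marcescens IMP-1 and K. pneumoniae VIM-1. Plates were incubated 22–24 h at 35 °C before absorbance (OD600) readout.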

[2] = system: Klebsiella pneumoniae expressing VIM-1 (IHMA599644); test: as above; assay type: cell-based; conditions: for Klebsiella pneumoniae expressing VIM-1 (IHMA 599644) MITC95: concentration giving 95% inhibition of bacterial growth
Procedure, shortened: as §1

[3] = system: Serratia marcescens expressing IMP-1 (CL5741); test: as above; assay type: cell-based; conditions: for Serratia marcescens expressing IMP-1 (CL5741) MITC95: concentration giving 95% inhibition of bacterial growth
Procedure, shortened: as §1

VIM-1 = VIM-1 (Pseudomonas aeruginosa (strain ATCC 15692 / DSM 22644 / CIP 104116 / JCM 14847 / LMG 12228 / 1C / PRS 101 / PAO1), UniProt A0A0F7KYQ8); test: Enzyme activity: determination of IC50, fluorescence assay with CCF2-FA substrate (VIM-1); assay type: biochemical
[4] = fluorescence assay with CCF2-FA substrate
[5] = fluorescence assay with CCF2-FA substrate, read-out: VIM-1 IC50
[6] = CLB30016 (NDM-1), 95% inhibition of bacterial growth
[7] = IHMA599644 (VIM-1), 95% inhibition of bacterial growth
[8] = CL5741 (IMP-1), 95% inhibition of bacterial growth
[9] = NDM-1 enzyme, CCF2-FA fluorescence assay
[10] = IMP-1 enzyme, CCF2-FA fluorescence assay
[11] = Escherichia coli expressing NDM-1 (CLB30016), 95% growth inhibition
[12] = Klebsiella pneumoniae expressing VIM-1 (IHMA599644), 95% growth inhibition
[13] = Serratia marcescens expressing IMP-1 (CL5741), 95% growth inhibition
[14] = VIM-1 enzyme, CCF2-FA fluorescence assay, read-out: VIM-1 IC50
[15] = NDM-1 enzyme, CCF2-FA substrate
[16] = IMP-1 enzyme, CCF2-FA substrate
[17] = (CLB30016, NDM-1), 95% growth inhibition
[18] = Klebsiella pneumoniae IHMA599644 (VIM-1), 95% growth inhibition
[19] = Serratia marcescens CL5741 (IMP-1), 95% growth inhibition

Chain of NDM-1 (C7C422 whole entry, looked up, species assumed): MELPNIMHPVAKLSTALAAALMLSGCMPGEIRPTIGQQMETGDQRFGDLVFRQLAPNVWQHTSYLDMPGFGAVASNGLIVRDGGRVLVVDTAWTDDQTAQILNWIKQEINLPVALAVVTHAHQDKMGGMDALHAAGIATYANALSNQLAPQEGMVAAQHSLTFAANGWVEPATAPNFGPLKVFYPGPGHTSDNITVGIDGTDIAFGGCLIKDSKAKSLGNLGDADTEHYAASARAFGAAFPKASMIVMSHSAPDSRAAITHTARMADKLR
Chain of IMP-1 (P52699 whole entry, looked up): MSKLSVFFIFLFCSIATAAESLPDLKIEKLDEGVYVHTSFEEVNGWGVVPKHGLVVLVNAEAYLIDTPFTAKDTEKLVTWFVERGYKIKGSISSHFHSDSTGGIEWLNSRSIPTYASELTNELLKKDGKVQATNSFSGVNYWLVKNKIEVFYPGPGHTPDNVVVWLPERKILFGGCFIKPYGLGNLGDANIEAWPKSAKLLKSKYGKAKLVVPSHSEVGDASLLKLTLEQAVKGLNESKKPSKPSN

SMILES | IC50 (NDM-1; [4]) [nM] | IC50 (IMP-1; [4]) [nM] | IC50 (VIM-1; [5]) [nM] | Escherichia coli MITC95 [1, 6] [µM] | Klebsiella pneumoniae MITC95 [2, 7] [µM] | Serratia marcescens MITC95 [3, 8] [µM] | IC50 (NDM-1; [9]) [nM] | IC50 (IMP-1; [10]) [nM] | Escherichia coli MITC95 [1, 11] [µM] | Klebsiella pneumoniae MITC95 [2, 12] [µM] | Serratia marcescens MITC95 [3, 13] [µM] | other results
NS(=O)(=O)c1cccc(C2CC2)c1-c1nnn[nH]1 [Example 157, 3-cyclopropyl-2-(1H-tetrazol-5-yl)benzenesulfonamide] | 28.7 | 561 | 1050 | – | – | – | – | – | – | – | – | Escherichia coli expressing NDM-1 (CLB 30016) MITC95 [1]: 0.3906 µM; Klebsiella pneumoniae expressing VIM-1 (IHMA 599644) MITC95 [2]: 50 µM; Serratia marcescens expressing IMP-1 (CL5741) MITC95 [3]: 6.25 µM
NCCC1CCN(c2ccc(C(F)(F)F)c(S(N)(=O)=O)c2-c2nnn[nH]2)CC1 [Example 755, 3-[4-(2-aminoethyl)piperidin-1-yl]-2-(1H-tetrazol-5-yl)-6-(trifluoromethyl) benzenesulfonamide] | 13.9 | 22.1 | 0.191 | 6.25 | 3.125 | 6.25 | – | – | – | – | – | –
N=C(N)N1CCC([C@H]2CC[C@H](c3ccc(C(F)(F)F)c(S(N)(=O)=O)c3-c3nnn[nH]3)CC2)CC1 [Example 825, 4-[4-[3-sulfamoyl-2-(1H-tetrazol-5-yl)-4-(trifluoromethyl)phenyl]cyclohexyl] piperidine-1-carboxamidine] | 0.157 | 0.499 | 0.0805 | 0.7813 | 3.125 | 1.563 | – | – | – | – | – | –
NS(=O)(=O)c1cccc(-c2ccc(CNCC(=O)NO)cc2)c1-c1nnn[nH]1 [Example 330, N-hydroxy-2-(((3′-sulfamoyl-2′-(1H-tetrazol-5-yl)-[1,1′-biphenyl]-4-yl)methyl)amino)acetamide] | – | – | – | – | – | – | 12.5 | 118 | 1.563 | 50 | 4.688 | IC50 (VIM-1; [14]): 401 nM
NS(=O)(=O)c1cccc(C2CCC(N3CCNCC3)CC2)c1-c1nn[nH]n1 (stereo not drawn) [Example 170, 3-(4-(piperazin-1-yl)cyclohexyl)-2-(2H-tetrazol-5-yl)benzenesulfonamide] | 21.9 | 577 | 3470 | – | – | – | – | – | – | – | – | Escherichia coli expressing NDM-1 (CLB 30016) MITC95 [1]: 1.563 µM; Klebsiella pneumoniae expressing VIM-1 (IHMA 599644) MITC95 [2]: 200 µM; Serratia marcescens expressing IMP-1 (CL5741) MITC95 [3]: 9.375 µM
NS(=O)(=O)c1cccc(-c2ccc(CNCC3(O)CCC3)cc2)c1-c1nnn[nH]1 [Example 376, 4′-({[(1-hydroxycyclobutyl)methyl]amino}methyl)-2-(1H-tetrazol-5-yl)biphenyl-3-sulfonamide] | – | – | – | – | – | – | 14.4 | 96.6 | 2.344 | 15.63 | 4.688 | IC50 (VIM-1; VIM-1 IC50, VIM-1 enzyme, CCF2-FA fluorescence assay): 50.4 nM
CNCCN(C)c1ccc(-c2cccc(S(N)(=O)=O)c2-c2nnn[nH]2)cn1 [Example 637, 3-[6-[methyl-[2-(methylamino)ethyl]amino]-3-pyridyl]-2-(1H-tetrazol-5-yl)benzenesulfonamide] | – | – | – | – | – | – | – | – | – | – | – | IC50 (NDM-1; [15]): 52 nM; IC50 (IMP-1; [16]): 925 nM; Escherichia coli MITC95 [1, 17]: 2.344 µM; Klebsiella pneumoniae MITC95 [2, 18]: 50 µM; Serratia marcescens MITC95 [3, 19]: 25 µM; IC50 (VIM-1; VIM-1 IC50, VIM-1 enzyme, CCF2-FA substrate): 453 nM
Nc1ccnc2cc(-c3cccc(S(N)(=O)=O)c3-c3nnn[nH]3)ccc12 [Example 412, 3-(4-amino-7-quinolyl)-2-(1H-tetrazol-5-yl)benzenesulfonamide] | – | – | – | – | – | – | 25.9 | 1390 | 0.3906 | 3.125 | 25 | IC50 (VIM-1; [14]): 25.8 nM
NS(=O)(=O)c1c(C(F)(F)F)ccc(N2CCN(CCO)CC2)c1-c1nnn[nH]1 [Example 759, 3-[4-(2-hydroxyethyl)piperazin-1-yl]-2-(1H-tetrazol-5-yl)-6-(trifluoromethyl) benzenesulfonamide] | 22.5 | 40.9 | 45.6 | 3.125 | 12.5 | 3.125 | – | – | – | – | – | –
NS(=O)(=O)c1c(C(F)(F)F)ccc(-c2ccc(-c3c[nH]c(O)n3)cc2)c1-c1nnn[nH]1.O=C(O)C(F)(F)F [Example 559, 3-[4-(2-hydroxy-1H-imidazol-4-yl)phenyl]-2-(1H-tetrazol-5-yl)-6-(trifluoromethyl)benzenesulfonamide] | – | – | – | – | – | – | – | – | – | – | – | IC50 (NDM-1; [15]): 0.439 nM; IC50 (IMP-1; [16]): 0.534 nM; Escherichia coli MITC95 [1, 17]: 12.5 µM; Klebsiella pneumoniae MITC95 [2, 18]: 12.5 µM; Serratia marcescens MITC95 [3, 19]: 6.25 µM; IC50 (VIM-1; VIM-1 enzyme, CCF2-FA substrate, read-out: VIM-1 IC50): 0.212 nM
